Results published in the supplement of paper PMC11208160.
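Note: IS621 bridge recombinase in Escherichia coli cells against a fixed T5 target plasmid.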

Assay: recombinant UMI read abundance after kanamycin selection (control-corrected) (log10(CPM+1)); higher = more efficient recombination; extreme values may be limits of the assay; sequences stand for … in AGTGCAGAGAAAATCGGCCAGTTTTCTCTGCCTGCAGTCCGCATGCCGTGGGACCCCTTGGGTTCTAACCTGTTGCCTAGATTTATGCAGCGGACTGCCTTTCTCCCAAAGTGATAAACCGG…AGGTTGGTTTCACT; site = the 11-nt donor
Description: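 Pooled E. coli donor-specificity screen for the IS621 bridge recombinase. Each library member carries a reprogrammed 11-nt donor and a full-length LE bridge RNA expressed in cis from the natural promoter, with a paired donor-binding loop (8-nt LDG + 4-nt RDG) and a target-binding loop fixed to T5. It is co-electroporated with a T5 target plasmid; recombinase is induced with 0.07 mM IPTG and recombinants are selected on kanamycin. UMIs are counted as CPM, averaged over two biological replicates and corrected by the unselected control. Molecule = full bridge RNA written as DNA, built from the T5 scaffold: LDG = donor specificity nt 1-8, RDG = reverse complement of nt 8-11.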
In the case of “TAAGTCACATGGACCGGTTTTCCCGGTAATCCGTATTTGAC (site TAAGTCACTGT)”, the “recombinant UMI read abundance (log10)” value is reported as 2.35.
With “GAATGGGCATGGACCGGTTTTCCCGGTAATCCGTATTTGCA (site GAATGGTCTTG)” the “recombinant UMI read abundance (log10)” value was 2.23.
With “GCTTGTCCATGGACCGGTTTTCCCGGTAATCCGTATTTGAT (site GCTTGGCCTAT)” the “recombinant UMI read abundance (log10)” value was 0.
With “TATCTCACATGGACCGGTTTTCCCGGTAATCCGTATTTGAC (site TATCTCACTGT)” the “recombinant UMI read abundance (log10)” value was 2.11.
For “CAAGCAACATGGACCGGTTTTCCCGGTAATCCGTATTTGCT (site CAAGCACCTAG)”, the “recombinant UMI read abundance (log10)” value was 0.
With “CGGTCGACATGGACCGGTTTTCCCGGTAATCCGTATTTGTT (site CGTTCGACTAA)” the “recombinant UMI read abundance (log10)” value was 0.00264.
In the case of “AATCATGCATGGACCGGTTTTCCCGGTAATCCGTATTTGGA (site AATTATGCTTC)”, the “recombinant UMI read abundance (log10)” value is reported as 0.636.
For “ACAGTAGCATGGACCGGTTTTCCCGGTAATCCGTATTTGTA (site ACAGTATCTTG)”, the “recombinant UMI read abundance (log10)” value was 1.49.
With “GTATACACATGGACCGGTTTTCCCGGTAATCCGTATTTGTA (site GTATTCACTTA)” the “recombinant UMI read abundance (log10)” value was 0.0042.
In the case of “GAATATTCATGGACCGGTTTTCCCGGTAATCCGTATTTGTT (site GAACATTCTAA)”, the “recombinant UMI read abundance (log10)” value is reported as 0.
For “GTTAGAACATGGACCGGTTTTCCCGGTAATCCGTATTTGGT (site GTTAGAACTGC)”, the “recombinant UMI read abundance (log10)” value was 0.
In the case of “ACGTAGACATGGACCGGTTTTCCCGGTAATCCGTATTTGGG (site ACGTAGACTCC)”, the “recombinant UMI read abundance (log10)” value is reported as 0.4.
For “ACCTAGACATGGACCGGTTTTCCCGGTAATCCGTATTTGCG (site ACCTAGACTCC)”, the “recombinant UMI read abundance (log10)” value was 0.0218.
In the case of “CCCGAGTCATGGACCGGTTTTCCCGGTAATCCGTATTTGCC (site CCCGAGTCTGG)”, the “recombinant UMI read abundance (log10)” value is reported as 0.938.
For “CTGAATGCATGGACCGGTTTTCCCGGTAATCCGTATTTGTT (site CGGAATCCTAA)”, the “recombinant UMI read abundance (log10)” value was 0.00219.
With “GGTCACCCATGGACCGGTTTTCCCGGTAATCCGTATTTGTT (site GGGCACCCTAA)” the “recombinant UMI read abundance (log10)” value was 0.0126.
In the case of “CAGAATTCATGGACCGGTTTTCCCGGTAATCCGTATTTGGA (site CAGAATTCTTC)”, the “recombinant UMI read abundance (log10)” value is reported as 3.34.
For “CAATTGCCATGGACCGGTTTTCCCGGTAATCCGTATTTGCT (site CAATTGCCTAG)”, the “recombinant UMI read abundance (log10)” value was 1.32.
For “GGTGTTCCATGGACCGGTTTTCCCGGTAATCCGTATTTGGT (site GCTGTTCCTAC)”, the “recombinant UMI read abundance (log10)” value was 0.0204.
For “CACTCCGCATGGACCGGTTTTCCCGGTAATCCGTATTTGCC (site CACTCCTCTGG)”, the “recombinant UMI read abundance (log10)” value was 1.36.
For “ACTAGATCATGGACCGGTTTTCCCGGTAATCCGTATTTGAG (site ACTAGATCTCT)”, the “recombinant UMI read abundance (log10)” value was 2.52.
For “CGGTCGACATGGACCGGTTTTCCCGGTAATCCGTATTTGGG (site CAGTCGACTCC)”, the “recombinant UMI read abundance (log10)” value was 0.0262.
For “TAATAAGCATGGACCGGTTTTCCCGGTAATCCGTATTTGGG (site TAATCAGCTCC)”, the “recombinant UMI read abundance (log10)” value was 0.012.
With “CGTTAGACATGGACCGGTTTTCCCGGTAATCCGTATTTGAG (site CGGTAGACTCT)” the “recombinant UMI read abundance (log10)” value was 0.157.
With “CGCTCCTCATGGACCGGTTTTCCCGGTAATCCGTATTTGCC (site CACTCCTCTGG)” the “recombinant UMI read abundance (log10)” value was 2.35.
In the case of “CGTTTGGCATGGACCGGTTTTCCCGGTAATCCGTATTTGCT (site CGTTTCGCTAG)”, the “recombinant UMI read abundance (log10)” value is reported as 0.
For “CAGGAAACATGGACCGGTTTTCCCGGTAATCCGTATTTGCA (site CCGGAAACTTG)”, the “recombinant UMI read abundance (log10)” value was 0.
For “GTAGTCGCATGGACCGGTTTTCCCGGTAATCCGTATTTGAG (site GTAGTCGCTCT)”, the “recombinant UMI read abundance (log10)” value was 1.5.
In the case of “TCTTCGGCATGGACCGGTTTTCCCGGTAATCCGTATTTGGC (site TCTTCGGCTGC)”, the “recombinant UMI read abundance (log10)” value is reported as 0.
In the case of “TAATGAGCATGGACCGGTTTTCCCGGTAATCCGTATTTGGG (site TAATGAGCTGC)”, the “recombinant UMI read abundance (log10)” value is reported as 0.
For “GGTCACCCATGGACCGGTTTTCCCGGTAATCCGTATTTGTT (site GGTCACCCTAA)”, the “recombinant UMI read abundance (log10)” value was 0.00231.
With “ATATCTACATGGACCGGTTTTCCCGGTAATCCGTATTTGTG (site ATATCTACTCA)” the “recombinant UMI read abundance (log10)” value was 0.895.
For “CGGAATCCATGGACCGGTTTTCCCGGTAATCCGTATTTGTT (site CTGAATCCTAC)”, the “recombinant UMI read abundance (log10)” value was 0.
For “AACGAAACATGGACCGGTTTTCCCGGTAATCCGTATTTGCC (site AACGAAACTGG)”, the “recombinant UMI read abundance (log10)” value was 2.4.
For “GGGCATGCATGGACCGGTTTTCCCGGTAATCCGTATTTGGT (site GTGCATGCTAC)”, the “recombinant UMI read abundance (log10)” value was 0.161.
With “AGCCTCGCATGGACCGGTTTTCCCGGTAATCCGTATTTGTT (site AGCCTTGCTAA)” the “recombinant UMI read abundance (log10)” value was 0.0107.
For “GCAGTTTCATGGACCGGTTTTCCCGGTAATCCGTATTTGCA (site GCAGTTTCTTG)”, the “recombinant UMI read abundance (log10)” value was 2.59.
For “AATGTGTCATGGACCGGTTTTCCCGGTAATCCGTATTTGAT (site AATGTGTCTAT)”, the “recombinant UMI read abundance (log10)” value was 1.66.
With “GATGTATCATGGACCGGTTTTCCCGGTAATCCGTATTTGCA (site GATGTATCTTG)” the “recombinant UMI read abundance (log10)” value was 2.3.
With “GTTGAGACATGGACCGGTTTTCCCGGTAATCCGTATTTGAC (site GTTGAGACTGT)” the “recombinant UMI read abundance (log10)” value was 2.94.
With “CAACATACATGGACCGGTTTTCCCGGTAATCCGTATTTGTG (site CAACATACTCA)” the “recombinant UMI read abundance (log10)” value was 1.83.
With “GCTACTGCATGGACCGGTTTTCCCGGTAATCCGTATTTGCC (site GCTACTGCTTG)” the “recombinant UMI read abundance (log10)” value was 0.255.
For “CGGGATCCATGGACCGGTTTTCCCGGTAATCCGTATTTGAT (site CGGGAGCCTAT)”, the “recombinant UMI read abundance (log10)” value was 0.0289.
For “AGCCGTTCATGGACCGGTTTTCCCGGTAATCCGTATTTGAC (site AGCCGTTCTGT)”, the “recombinant UMI read abundance (log10)” value was 1.9.
For “CGATCATCATGGACCGGTTTTCCCGGTAATCCGTATTTGCT (site CGTTGATCTAG)”, the “recombinant UMI read abundance (log10)” value was 0.
With “GGTCCAACATGGACCGGTTTTCCCGGTAATCCGTATTTGTG (site GGTCCAACTAA)” the “recombinant UMI read abundance (log10)” value was 0.00832.
With “AAGTCGACATGGACCGGTTTTCCCGGTAATCCGTATTTGGG (site TAGTCGACTCC)” the “recombinant UMI read abundance (log10)” value was 0.0179.
With “CGTTTGGCATGGACCGGTTTTCCCGGTAATCCGTATTTGCT (site CGTTTGGCTTG)” the “recombinant UMI read abundance (log10)” value was 0.
For “CAGTCGACATGGACCGGTTTTCCCGGTAATCCGTATTTGGC (site CAGTCGACTTC)”, the “recombinant UMI read abundance (log10)” value was 0.0416.
For “AGCACAGCATGGACCGGTTTTCCCGGTAATCCGTATTTGAC (site AGCACAGCTGT)”, the “recombinant UMI read abundance (log10)” value was 2.8.
With “CCAGGTTCATGGACCGGTTTTCCCGGTAATCCGTATTTGTC (site CCAGGTTCTGA)” the “recombinant UMI read abundance (log10)” value was 2.24.
With “GAAACCTCATGGACCGGTTTTCCCGGTAATCCGTATTTGGG (site GAAACCTCTCC)” the “recombinant UMI read abundance (log10)” value was 0.698.
For “GGCCATCCATGGACCGGTTTTCCCGGTAATCCGTATTTGAA (site GGCCATCCTTT)”, the “recombinant UMI read abundance (log10)” value was 0.00888.
In the case of “AAACGTCCATGGACCGGTTTTCCCGGTAATCCGTATTTGAT (site AAACGTCCTAT)”, the “recombinant UMI read abundance (log10)” value is reported as 0.701.
For “CAAGCGCCATGGACCGGTTTTCCCGGTAATCCGTATTTGGG (site CAAGCGCCTCC)”, the “recombinant UMI read abundance (log10)” value was 0.0155.
For “CGGAATCCATGGACCGGTTTTCCCGGTAATCCGTATTTGTT (site CAGAATACTAA)”, the “recombinant UMI read abundance (log10)” value was 0.
In the case of “TACGCCACATGGACCGGTTTTCCCGGTAATCCGTATTTGAG (site TACGCCACTCT)”, the “recombinant UMI read abundance (log10)” value is reported as 0.652.
With “CTTCTCTCATGGACCGGTTTTCCCGGTAATCCGTATTTGTA (site CTTCTCTCTTC)” the “recombinant UMI read abundance (log10)” value was 0.278.
With “CGTTTGGCATGGACCGGTTTTCCCGGTAATCCGTATTTGCT (site CGTTAGGCTAG)” the “recombinant UMI read abundance (log10)” value was 0.
With “GCGAAGACATGGACCGGTTTTCCCGGTAATCCGTATTTGCT (site GCGAATACTAG)” the “recombinant UMI read abundance (log10)” value was 0.
In the case of “CGTATGGCATGGACCGGTTTTCCCGGTAATCCGTATTTGCT (site CGTCTGGCTAG)”, the “recombinant UMI read abundance (log10)” value is reported as 0.
For “CAAGGCCCATGGACCGGTTTTCCCGGTAATCCGTATTTGTT (site CAGGGCCCTAA)”, the “recombinant UMI read abundance (log10)” value was 0.0144.
With “TAGAGAACATGGACCGGTTTTCCCGGTAATCCGTATTTGAG (site TAGAGAACTCT)” the “recombinant UMI read abundance (log10)” value was 1.87.
In the case of “CACGCAGCATGGACCGGTTTTCCCGGTAATCCGTATTTGCT (site CATGCAGCTAG)”, the “recombinant UMI read abundance (log10)” value is reported as 0.
In the case of “TGATAGACATGGACCGGTTTTCCCGGTAATCCGTATTTGCC (site AGATAGACTGG)”, the “recombinant UMI read abundance (log10)” value is reported as 1.96.
For “CAAGGACCATGGACCGGTTTTCCCGGTAATCCGTATTTGGG (site CCAGGACCTCC)”, the “recombinant UMI read abundance (log10)” value was 0.0136.
For “CTGAAAACATGGACCGGTTTTCCCGGTAATCCGTATTTGCA (site CTGCAAACTTG)”, the “recombinant UMI read abundance (log10)” value was 0.
In the case of “CGATCAACATGGACCGGTTTTCCCGGTAATCCGTATTTGTT (site CGATCGACTAA)”, the “recombinant UMI read abundance (log10)” value is reported as 0.00905.
In the case of “AGGAATACATGGACCGGTTTTCCCGGTAATCCGTATTTGGC (site AGGAATACTGC)”, the “recombinant UMI read abundance (log10)” value is reported as 2.59.
In the case of “CGATTATCATGGACCGGTTTTCCCGGTAATCCGTATTTGCT (site CGATTATCTAG)”, the “recombinant UMI read abundance (log10)” value is reported as 2.28.
In the case of “TCCACGGCATGGACCGGTTTTCCCGGTAATCCGTATTTGCG (site TCCACAGCTCG)”, the “recombinant UMI read abundance (log10)” value is reported as 0.0432.
With “CGGGATCCATGGACCGGTTTTCCCGGTAATCCGTATTTGAT (site CGGGACCCTAT)” the “recombinant UMI read abundance (log10)” value was 0.492.
